The NIST ThermoML archive (doi:10.1021/acs.jced.8b00427)

Conditions: Liquid, Frequency=4 MHz, Pulse-echo method

FC(F)(F)/C=C/Cl [(E)-1-chloro-3,3,3-trifluoroprop-1-ene]
Conditions	speed of sound [m/s]
273.14 K, 30070 kPa	936.9
273.15 K, 5030 kPa	815.43
273.15 K, 20150 kPa	892.92
273.15 K, 25090 kPa	915.36
273.16 K, 190 kPa	786.78
273.16 K, 1000 kPa	791.78
273.16 K, 10050 kPa	842.75
273.16 K, 35030 kPa	957.33
283.14 K, 5170 kPa	778.28
283.14 K, 10020 kPa	806.46
283.14 K, 24930 kPa	882.24
283.14 K, 30260 kPa	906.25
283.15 K, 190 kPa	746.74
283.16 K, 980 kPa	752.01
283.16 K, 20000 kPa	858.64
283.16 K, 34920 kPa	926.3
293.15 K, 170 kPa	707.09
293.15 K, 9990 kPa	771.05
293.15 K, 20000 kPa	826.3
293.15 K, 35000 kPa	896.92
293.16 K, 1030 kPa	713.25
293.16 K, 5090 kPa	740.63
293.16 K, 30100 kPa	875.12
313.14 K, 270 kPa	628.5
313.15 K, 5010 kPa	666.72
313.15 K, 10000 kPa	702.15
313.15 K, 19990 kPa	763.58
313.15 K, 30050 kPa	816.73
313.15 K, 34920 kPa	840.09
313.16 K, 1180 kPa	636.05
333.14 K, 5010 kPa	594.52
333.14 K, 9980 kPa	634.9
333.15 K, 19990 kPa	704.25
333.15 K, 29970 kPa	761.64
333.15 K, 35060 kPa	787.99
353.14 K, 10010 kPa	571.03
353.14 K, 15090 kPa	612.03
353.14 K, 20150 kPa	648.34
353.15 K, 24990 kPa	679.91
353.15 K, 30000 kPa	710.32
353.15 K, 35040 kPa	738.23
